According to the RepoRT retention time repository:
Structures can show the parent of a compound that is named as a salt.

Assay: RP, Waters ACQUITY Premier BEH C18, 100 × 2.1 mm, 1.7 µm, 40 °C, 0.3 to 0.4 mL/min, estimated dead time 0.73 min; A: water + 0.1% formic acid; B: acetonitrile + 0.1% formic acid; gradient (min/%B) 0/0.5 0.1/0.5 10/80 10.1/99.5 12/0.5 12.1/0.5 14.5/0.5
Details: stereoisomer not certain

Structure (SMILES) | LC retention time
O=C1CC(C(=O)O)NC(=O)N1 (stereo unspecified) [4,5-DIHYDROOROTIC ACID] | 1.12 min
CC(=O)NC(CO)C(=O)O (stereo unspecified) [N-ACETYLSERINE] | 1.12 min
O=C(O)c1ccccc1O [SALICYLATE] | 5.97 min
O=C(O)c1ccc(O)cc1O [2,4-DIHYDROXYBENZOIC ACID] | 4 min
Nc1ccccc1O [2-AMINOPHENOL] | 1.62 min
C[N+](C)(C)CCCC(=O)[O-] [DEOXYCARNITINE] | 0.901 min
C=CC1CN2CCC1CC2C(O)c1ccnc2ccc(OC)cc12 (stereo unspecified) [QUININE] | 3.88 min
O=C(O)CCCc1c[nH]c2ccccc12 [3-INDOLEBUTYRIC ACID] | 6.25 min
O=C(O)CNC(=O)CCc1ccccc1 [PHENYLPROPIONYLGLYCINE] | 4.84 min
O=C(O)Cc1ccccc1O [ORTHO-HYDROXYPHENYLACETIC ACID] | 4.97 min
O=C(O)/C=C/c1ccccc1 [TRANS-CINNAMATE] | 6.45 min
N#CC(OC1OC(COC2OC(CO)C(O)C(O)C2O)C(O)C(O)C1O)c1ccccc1 (stereo unspecified) [AMYGDALIN] | 3.78 min
O=C(O)c1ccnc2ccccc12 [4-QUINOLINECARBOXYLATE] | 3.01 min
CCCCCC(O)C(O)CC=CCCCCCCCC(=O)O (stereo unspecified) [12,13-DIHOME] | 7.5 min
O=c1c(O)c(-c2ccc(O)cc2)oc2cc(O)cc(O)c12 [KAEMPFEROL] | 6.13 min
O=c1cc(-c2ccc(O)cc2)oc2cc(O)cc(O)c12 [APIGENIN] | 6.02 min
CCCOC(=O)c1ccc(O)cc1 [PROPYLPARABEN] | 6.78 min
CN(CC(=O)O)C(=N)N [CREATINE] | 0.905 min
O=C(O)C(O)c1ccc(O)cc1 (stereo unspecified) [P-HYDROXYMANDELIC ACID] | 2.48 min
O=c1cc(-c2ccc(O)c(O)c2)oc2cc(O)cc(O)c12 [LUTEOLIN] | 5.54 min
CCCCCCCCCCCCCCCCCC(=O)NCCO [STEAROYLETHANOLAMIDE] | 9.74 min
C[Se]CCC(N)C(=O)O (stereo unspecified) [SELENOMETHIONINE] | 1.09 min
CC(C)C(=O)OC(CC(=O)[O-])C[N+](C)(C)C [ISOBUTYRYL-L-CARNITINE] | 3.82 min
CC(=O)NC(CC(=O)O)C(=O)O (stereo unspecified) [N-ACETYLASPARTATE] | 1.41 min
CC(=O)C(C)O (stereo unspecified) [ACETOIN] | 3.5 min
O=C(O)CCc1ccccc1O [3-(2-HYDROXYPHENYL)PROPANOATE] | 5.47 min
C=CC(C)(O)CCC1C(C)(O)CCC2C(C)(C)CCCC21C (stereo unspecified) [SCLAREOL] | 8.18 min
COc1cc(CC2C(=O)OCC2Cc2ccc(OC)c(OC)c2)ccc1O (stereo unspecified) [ARCTIGENIN] | 6.63 min

Structure (SMILES) | LC retention time
Cc1cc2c(C(C)C)c(O)c(O)c(C=O)c2c(O)c1-c1c(C)cc2c(C(C)C)c(O)c(O)c(C=O)c2c1O [(-)-GOSSYPOL] | 8.49 min
O=C1CCCCO1 [5-VALEROLACTONE] | 4.9 min
CC12CCC3c4ccc(O)cc4CCC3C1CCC2O (stereo not drawn) [ESTRADIOL-17ALPHA] | 7.15 min
CC(=O)NC(Cc1ccccc1)C(=O)O (stereo unspecified) [N-ACETYLPHENYLALANINE] | 5.18 min
NC(Cc1cc(I)c(Oc2ccc(O)c(I)c2)c(I)c1)C(=O)O (stereo unspecified) [LIOTHYRONINE] | 6.23 min
O=C(O)CNC(=O)c1ccccc1 [HIPPURATE] | 4.57 min
O=C(O)CC(=O)O [MALONATE] | 1.21 min
CC(=O)C1CCC2C3CC=C4CC(OS(=O)(=O)O)CCC4(C)C3CCC12C (stereo unspecified) [PREGNENOLONE SULFATE] | 7.26 min
O=C(O)CCC(=O)C(=O)O [OXOGLUTARATE] | 1.3 min
O=C(O)CC(CC(=O)O)C(=O)O [1,2,3-PROPANETRICARBOXYLIC ACID] | 2.39 min
O=C(O)C1CCCCC1 [CYCLOHEXANECARBOXYLIC ACID] | 5.27 min
CNCCc1c[nH]c2ccccc12 [N-METHYLTRYPTAMINE] | 4.45 min
Cc1ccc(C(C)C)c(O)c1 [THYMOL] | 5.78 min
O=C(O)c1ccc2ccccc2c1O [1-HYDROXY-2-NAPHTHOATE] | 7.32 min
O=C1Cc2ccccc2N1 [1,3-DIHYDRO-(2H)-INDOL-2-ONE] | 5.06 min
O=C(O)c1cc(O)cc(O)c1 [3,5-DIHYDROXYBENZOIC ACID] | 2.21 min
O=c1c(-c2ccc(O)cc2)coc2cc(O)cc(O)c12 [GENISTEIN] | 6.07 min
N[C@@H](Cc1cc(I)c(Oc2ccc(O)cc2)c(I)c1)C(=O)O [3,5-DIIODO-L-THYRONINE] | 5.64 min
OCCc1ccc(O)c(O)c1 [HYDROXYTYROSOL] | 3.89 min
CCCCCCC(O)CCCCCCCCCCC(=O)O (stereo unspecified) [12-HYDROXYSTEARIC ACID] | 8.29 min
CCCCCCCC(=O)OC(CC(=O)[O-])C[N+](C)(C)C [L-OCTANOYLCARNITINE] | 5.76 min
COc1c(O)cc2oc(-c3ccc(O)cc3)cc(=O)c2c1O [5,7-DIHYDROXY-2-(4-HYDROXYPHENYL)-6-METHOXY-4H-CHROMEN-4-ONE] | 6.08 min
O=C(O)Cc1cc(O)ccc1O [HOMOGENTISATE] | 3.66 min
CC(C)c1cc2c(c(O)c1O)C1(C(=O)O)CCCC(C)(C)C1CC2 (stereo unspecified) [CARNOSIC ACID] | 8.06 min
O=c1ccc2ccc3occc3c2o1 [ANGELICIN] | 6.41 min
O=C(O)Cc1c[nH]c2ccccc12 [INDOLEACETIC ACID] | 5.72 min
NC(=O)NCCC(=O)O [UREIDOPROPIONATE] | 1.27 min

Continued, values first:

LC retention time | Structure (SMILES)
7.24 min | CC(CCC(=O)NCC(=O)O)C1CCC2C3CCC4CC(O)CCC4(C)C3CC(O)C12C (stereo unspecified) [DEOXYCHOLIC ACID GLYCINE CONJUGATE]
4.77 min | COc1ccc(C2CC(=O)c3c(O)cc(OC4OC(COC5OC(C)C(O)C(O)C5O)C(O)C(O)C4O)cc3O2)cc1O (stereo unspecified) [HESPERIDINE]
3.37 min | O=c1[nH]cnc2c1ncn2C1OC(CO)C(O)C1O (stereo unspecified) [INOSINE]
4.63 min | CC(C)=CCNc1ncnc2nc[nH]c12 [N6-(DELTA2-ISOPENTENYL)-ADENINE]
0.959 min | NC(=O)c1ccc[n+](C2OC(COP(=O)([O-])O)C(O)C2O)c1 (stereo unspecified) [NICOTINAMIDE MONONUCLEOTIDE]
0.9 min | CC(=O)NC1C(O)CC(O)(C(=O)O)OC1C(O)C(O)CO (stereo unspecified) [N-ACETYLNEURAMINATE]
1.12 min | OCC1OC(Oc2ccc(O)cc2)C(O)C(O)C1O (stereo unspecified) [ARBUTIN]
7.38 min | COc1cc2c(cc1O)CCC1C2CCC2(C)C(=O)CCC12 (stereo unspecified) [2-METHOXYESTRONE]
1.09 min | CC(=O)NC1C(O)OC(CO)C(O)C1OC(C)C(=O)O (stereo unspecified) [N-ACETYLMURAMATE]
9.14 min | C=Cc1c(C)c2cc3[nH]c(cc4nc(cc5nc(cc1[nH]2)C(C)=C5CCC(=O)O)C(CCC(=O)O)=C4C)c(C)c3C=C [PROTOPORPHYRIN]
6.06 min | CC12CCC(=O)C=C1CCC1C2C(O)CC2(C)C1CCC2(O)C(=O)CO (stereo unspecified) [CORTISOL]
7.25 min | CC(CCC(=O)O)C1CCC2C3C(=O)CC4CC(O)CCC4(C)C3CCC12C (stereo unspecified) [NUTRIACHOLIC ACID]
4.58 min | COc1cc(CC(COC2OC(CO)C(O)C(O)C2O)C(COC2OC(CO)C(O)C(O)C2O)Cc2ccc(O)c(OC)c2)ccc1O (stereo unspecified) [SECOISOLARICIRESINOL DIGLUCOSIDE]
3.35 min | Nc1ncnc2c1ncn2C1OC2COP(=O)(O)OC2C1O (stereo unspecified) [CYCLIC AMP]
6.67 min | CC12CCC(=O)C=C1CCC1C2C(O)CC2(C)C(C(=O)CO)CCC12 (stereo unspecified) [CORTICOSTERONE]
5.18 min | O=c1cc(C2Oc3cc(O)cc(O)c3CC2O)cc2c(C3Oc4cc(O)cc(O)c4CC3O)cc(O)c(O)c2c1O (stereo unspecified) [THEAFLAVIN]

LC retention time | Structure (SMILES)
1.16 min | O=C(O)CC(C(=O)O)C(O)C(=O)O (stereo unspecified) [ISOCITRATE]
4.47 min | O=C(OC1Cc2c(O)cc(O)cc2OC1c1ccc(O)c(O)c1)c1cc(O)c(O)c(O)c1 (stereo unspecified) [(?)-EPICATECHIN GALLATE]
0.954 min | Nc1ncnc2c1ncn2C1OC(COP(=O)([O-])OP(=O)([O-])OCC2OC(O)C(O)C2O)C(O)C1O (stereo unspecified) [ADENOSINE DIPHOSPHATE RIBOSE]
3.08 min | O=c1[nH]c(=O)c2nccnc2[nH]1 [2,4-DIHYDROXYPTERIDINE]
3.96 min | Cn1c(=O)c2[nH]cnc2n(C)c1=O [THEOPHYLLINE]
5.85 min | CC(CCC(=O)NCCS(=O)(=O)O)C1CCC2C3C(O)CC4CC(O)CCC4(C)C3CC(O)C12C (stereo unspecified) [TAUROCHOLIC ACID]
4.35 min | OCC1OC(Oc2ccc3c(c2)OCC2c4cc5c(cc4OC32)OCO5)C(O)C(O)C1O (stereo unspecified) [TRIFOLIRHIZIN]
3.62 min | Nc1ccccc1C(=O)CC(N)C(=O)O (stereo unspecified) [KYNURENINE]
5.05 min | CC=C1C(OC2OC(CO)C(O)C(O)C2O)OC=C(C(=O)OC)C1CC(=O)OCCc1ccc(O)c(O)c1 (stereo unspecified) [OLEUROPEIN]
7.64 min | CC(=O)OCC(=O)C1CCC2C3CCC4=CC(=O)CCC4(C)C3CCC12C (stereo unspecified) [DEOXYCORTICOSTERONE ACETATE]
5.44 min | O=C(C=Cc1ccc(O)c(O)c1)OC(Cc1ccc(O)c(O)c1)C(=O)O (stereo unspecified) [ROSMARINATE]
2.99 min | Cc1c[nH]c(=O)[nH]c1=O [THYMINE]
4.43 min | OCC1OC(Oc2c[nH]c3ccccc23)C(O)C(O)C1O (stereo unspecified)
4.85 min | CC1NC(=O)NC1CCCCCC(=O)O (stereo unspecified) [DETHIOBIOTIN]
1.37 min | Nc1nc2c(ncn2C2OC(COP(=O)(O)OP(=O)(O)OC3OC(CO)C(O)C(O)C3O)C(O)C2O)c(=O)[nH]1 (stereo unspecified) [GUANOSINE DIPHOSPHATE MANNOSE]
